Reference: US7671085B2, “Non-steroidal farnesoid X receptor modulators and methods for the use thereof” (The Salk Institute for Biological Studies, priority 2002, dated 2010)
Entries after “also recorded” stand apart in the source; their conditions may differ.

Legend:
[1] = system: FXR (IBABP, PLTP and MRP-2 promoters); test: transient transfection cell-based assay with natural promoters of FXR targets (IBABP, PLTP, MRP-2)
Source text: For this study, the following gene promoters were used: intestinal bile acid binding protein (IBABP; see, for example, Grober et al. (1999). Identification of a bile acid-responsive element in the human ileal bile acid-binding protein gene. Involvement of the farnesoid X receptor/9-cis-retinoic acid receptor heterodimer. J Biol Chem. 274(42), 29749-54), phospholipid transfer protein (PLTP) (Urizar et al (2000). The farnesoid X-activated receptor mediates bile acid activation of phospholipid transfer protein gene expression. J Biol Chem. 275(50), 39313-7) and multidrug resistance related protein 2 (MRP-2) (Kast et al. (2002), supra), which are all well characterized targets of FXR. The natural promoters of both the IBABP and PLTP genes contain one copy of an inverted repeat with a one base spacing (IR-1) while MRP-2 contains an ER-8 element. […] The most robust activation (28-fold) was seen on the IBABP promoter. Less robust (2-3 fold) but specific activation was observed on the PLTP and MRP-2 promoters.

[2] = system: IBABP mRNA in HT29-FXRFL cells; test: Northern blot of IBABP mRNA in HT29 stable cell lines; type: cell-based, Human; conditions: for concentration for maximal induction of IBABP mRNA: overnight treatment
Description: (§1) HepG2 or HT29-derived cell lines were typically cultured in medium containing superstripped FBS for 24 hr before the addition of a ligand or DMSO (vehicle) for an additional 24-48 hr. Total RNA was isolated using TRIzol reagent and was resolved (10 μg/lane) on a 1% agarose, 2.2 M formaldehyde gel, transferred to a nylon membrane (Hybond N^+; Amersham Biosciences, Inc.), and cross-linked to the membrane with UV light.
(§2) cDNA probes were radiolabeled with [α-^32P]dCTP using the highprime labeling kit (Amersham Biosciences, Inc.). Membranes were hybridized using the QuikHyb hybridization solution (Stratagene, La Jolla, Calif.) according to the manufacturer's protocol. Blots were normalized for variations of RNA loading by hybridization to a control probe, either, 18 S ribosomal cDNA, or the ribosomal protein 36B4. The RNA levels were quantitated using a PhosphorImager (ImageQuant software; Molecular Dynamics, Inc., Sunnyvale, Calif.) in addition to being exposed to X-ray film.
Human colon cells HT29 (FXR null until differentiated) were infected with retroviral vectors that expressed either FXR constructs and the puromycin-resistant gene or the puromycin-resistant gene alone. Puromycin resistant cells were isolated and pooled cell populations were propagated that harbored either the vector alone (HT29-BABE), overexpressed FXR full length (HT29-FXRFL), a non-functional FXR truncated at the AF2 region (HT29-FXR-AF2), or a constitutively active FXR that has the VP16 activation domain fused N-terminal of the protein (HT29-VP16-FXR). Confirmation of the successful establishment of the different stable cell lines was established via northern blot analysis of FXR message levels in the cells.
These observations verify the usefulness of this colon cell model system for studying the induction of FXR target genes.
The ability of the novel compounds identified herein to induce IBABP gene expression in this cell system was also examined. Total RNA from HT29 stable cells treated overnight with fexaramine, fexarine and fexarene was probed for IBABP gene expression.

[3] = system: FXR target genes SHP, MRP-2, BSEP and PLTP; test: Northern blot of FXR target genes in HEPG2-FXR cells; type: cell-based; conditions: for induction of FXR target genes, in words: SHP, MRP-2, BSEP, PLTP; for concentration for maximal activation of FXR target genes: overnight treatment
Description: as §1, §2
Total RNA was isolated and the expression of the FXR target genes SHP, MRP-2, BSEP and PLTP was measured by Northern blot analysis. […]

[4] = HT29-BABE or HT29-FXR-AF2 cell lines

Row | Structure (SMILES) | concentration of maximum efficacy [1] [µM] | induction of IBABP mRNA, in words [2, 4] | induction of IBABP mRNA, in words ([2]; HT29-FXRFL cells) | concentration for maximal induction of IBABP mRNA ([2]; HT29-FXRFL cells) [µM] | induction of FXR target genes, in words [3] | concentration for maximal activation of FXR target genes [3] [µM] | induction of FXR target genes, in words ([3]; listed as fexaramine)
1 | COC(=O)C=Cc1cccc(N(Cc2ccc(C=Cc3ccccc3)cc2)C(=O)C2CCCCC2)c1 [Compound 121] | 1 | No induction | induced expression of the IBABP mRNA | 1 | strong induction | 10 | 
2 | COC(=O)/C=C/c1cccc(N(Cc2ccc(-c3ccc4c(c3)OCO4)cc2)C(=O)C2CCCCC2)c1 [Compound 244] | 1 | No induction | induced expression of the IBABP mRNA | 1 | strong induction | 10 | 
3 | COC(=O)/C=C/c1cccc(N(Cc2ccc(-c3ccc(N(C)C)cc3)cc2)C(=O)C2CCCCC2)c1 [Compound 259] | 1 | No induction | induced expression of the IBABP mRNA | 1 |  | 10 | most effective inducer of target genes; also recorded: matched GW4064 induced activation of the BSEP and MRP-2 genes
